Measured values as given in patent publication US20110059122A1, “Inhibition of the Survival of Oral Cavity Cancer by Cyclohexenone Compounds from Antrodia Camphorata” (GOLDEN BIOTECHNOLOGY CORPORATION, priority 2009, published 2011).

Tested on: oral cavity cancer cell line SCC-25
Test: In vitro survival assay (MTT) for anti-oral cavity cancer effects
Assay type: cell-based
Conditions: Homo sapiens, SCC-25 cells, 48 hours treatment, absorbance 570 nm, read-out: IC50 (half inhibition concentration), survival of oral cavity cancer cells
Procedure: Inhibiting effects of oral cavity cancer cells by cyclohexenone compounds of Antrodia camphorata from example 1 were assessed according to the anticancer-drug screening model of National Cancer Institute (NCI). The compound 4-hydroxy-2,3-dimethoxy-6-methyl-5-(3,7,11-trimethyl-dodeca-2,6,10-trienyl)-cyclohex-2-enone from example 1 was added into the culture media of oral cavity cancer cell line SCC-25 to determine the survival rates. Survival of cell was analyzed using MTT assay. SCC-25 cell line was a human squamous cell carcinoma cell line.
MTT assay is commonly used to analyze cell proliferation, survival rate of viable cells and cytotoxicity. MTT (3[4,5-dimethylthiazol-2-yl]-2,5-diphenyltetrazolium bromide) is a yellow dye which can be converted to water-insoluble purple formazan on the reductive cleavage of its tetrazolium ring by the succinate tetrazolium reductase in mitochondria of cells. The amount of formazan produced is used to detect the number of viable cells and calculate the survival rates.
The SCC-25 cells were cultivated in DMEM/F12(1:1) medium supplemented with 10% fetal bovine serum and 400 ng/ml of hydrocortisone at 37° C., 5% CO2 for 24 hours. Proliferated cells were washed once with PBS, treated with 1× trypsin-EDTA, and centrifuged at 1200 rpm for 5 min. […] The absorbances were measured at 570 nm with an ELISA Reader to determine the survival rates.

COC1=C(OC)C(O)C(C/C=C(\C)CC/C=C(\C)CCC=C(C)C)C(C)C1=O (stereo not shown) [formula 2, 4-hydroxy-2,3-dimethoxy-6-methyl-5-(3,7,11-trimethyl-dodeca-2,6,10-trienyl)-cyclohex-2-enone]
IC50: 1.05 µg/mL
